Measured values as given in doi:10.1101/2021.04.08.439011v1 (biorxiv, 2021).

Tests used:
[1] = molecular target: T1, STK33 (Homo sapiens, UniProt Q9BYT3); experiment: biochemical; conditions: read-out: Percent Control
[2] = molecular target: T2, DYRK1B (Homo sapiens, UniProt Q9Y463); experiment: biochemical; conditions: read-out: Percent Control
[3] = molecular target: T3, LTK (Homo sapiens, UniProt P29376); experiment: biochemical; conditions: read-out: Percent Control
[4] = molecular target: RPS6KA5(Kin.Dom.2-C-terminal) (Homo sapiens, UniProt O75582); conditions: 0.1 µM; binder
[5] = molecular target: JAK2(JH1domain-catalytic) (Homo sapiens, UniProt O60674); conditions: 0.1 µM; binder
[6] = molecular target: RPS6KA5(Kin.Dom.1-N-terminal) (Homo sapiens, UniProt O75582); conditions: 0.1 µM; binder
[7] = molecular target: RSK3(Kin.Dom.2-C-terminal) (Homo sapiens, UniProt Q15349); conditions: 0.1 µM; binder
[8] = molecular target: RSK1(Kin.Dom.2-C-terminal) (Homo sapiens, UniProt Q15418); conditions: 0.1 µM; binder
[9] = molecular target: PFPK5(P. falciparum) (Plasmodium falciparum, UniProt P61075); conditions: 1 µM; binder
[10] = molecular target: JAK1(JH2domain-pseudokinase) (Homo sapiens, UniProt P23458); conditions: 0.1 µM; binder
[11] = molecular target: RSK4(Kin.Dom.2-C-terminal) (Homo sapiens, UniProt Q9UK32); conditions: 0.1 µM; binder
[12] = molecular target: RSK4(Kin.Dom.1-N-terminal) (Homo sapiens, UniProt Q9UK32); conditions: 0.1 µM; binder
[13] = molecular target: PKNB (M. tuberculosis) (Mycobacterium tuberculosis, UniProt P9WI81); conditions: 1 µM; binder
[14] = molecular target: T1, STK33; experiment: biochemical; conditions: read-out: Percent Control; remark: listed apart in the source
[15] = molecular target: T2, DYRK1B; experiment: biochemical; conditions: read-out: Percent Control; remark: listed apart in the source
[16] = molecular target: T3, LTK; experiment: biochemical; conditions: read-out: Percent Control; remark: listed apart in the source
[17] = molecular target: TAOK2 (Homo sapiens, UniProt Q9UL54); conditions: 1 µM; binder
[18] = molecular target: VEGFR2 (Homo sapiens, UniProt P35968); conditions: 1 µM; binder
[19] = molecular target: SRPK2 (Homo sapiens, UniProt P78362); conditions: 1 µM; binder
[20] = molecular target: EPHA7 (Homo sapiens, UniProt Q15375); conditions: 1 µM; binder
[21] = molecular target: FGR (Homo sapiens, UniProt P09769); conditions: 1 µM; binder
[22] = molecular target: PAK3 (Homo sapiens, UniProt O75914); conditions: 1 µM; binder
[23] = molecular target: FRK (Homo sapiens, UniProt P42685); conditions: 1 µM; binder
[24] = molecular target: CDKL1 (Homo sapiens, UniProt Q00532); conditions: 1 µM; binder
[25] = molecular target: ZAK (Homo sapiens, UniProt Q9NYL2); conditions: 1 µM; binder
[26] = molecular target: PIK3CA(H1047Y) (Homo sapiens, UniProt P42336, H1047Y); conditions: 1 µM; binder
[27] = molecular target: HIPK3 (Homo sapiens, UniProt Q9H422); conditions: 1 µM; binder
[28] = molecular target: MUSK (Homo sapiens, UniProt O15146); conditions: 1 µM; binder
[29] = molecular target: PFCDPK1 (P. falciparum) (Plasmodium falciparum, UniProt P62344); conditions: 1 µM; binder

T1 sequence (Q9BYT3 whole entry): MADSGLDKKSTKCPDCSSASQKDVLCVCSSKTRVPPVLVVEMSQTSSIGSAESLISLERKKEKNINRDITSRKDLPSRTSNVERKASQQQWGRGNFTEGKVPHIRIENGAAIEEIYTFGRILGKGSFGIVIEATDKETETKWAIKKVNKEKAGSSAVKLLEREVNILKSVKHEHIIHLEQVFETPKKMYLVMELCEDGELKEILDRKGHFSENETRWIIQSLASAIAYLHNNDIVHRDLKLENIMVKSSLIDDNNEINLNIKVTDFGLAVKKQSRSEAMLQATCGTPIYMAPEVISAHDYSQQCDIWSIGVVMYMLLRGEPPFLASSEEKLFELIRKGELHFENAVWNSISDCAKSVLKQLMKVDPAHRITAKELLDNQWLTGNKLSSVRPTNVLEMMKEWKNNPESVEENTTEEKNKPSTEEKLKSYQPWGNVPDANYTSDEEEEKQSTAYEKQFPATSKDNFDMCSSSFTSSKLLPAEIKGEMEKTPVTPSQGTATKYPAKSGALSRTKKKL
T3 sequence (P29376 whole entry): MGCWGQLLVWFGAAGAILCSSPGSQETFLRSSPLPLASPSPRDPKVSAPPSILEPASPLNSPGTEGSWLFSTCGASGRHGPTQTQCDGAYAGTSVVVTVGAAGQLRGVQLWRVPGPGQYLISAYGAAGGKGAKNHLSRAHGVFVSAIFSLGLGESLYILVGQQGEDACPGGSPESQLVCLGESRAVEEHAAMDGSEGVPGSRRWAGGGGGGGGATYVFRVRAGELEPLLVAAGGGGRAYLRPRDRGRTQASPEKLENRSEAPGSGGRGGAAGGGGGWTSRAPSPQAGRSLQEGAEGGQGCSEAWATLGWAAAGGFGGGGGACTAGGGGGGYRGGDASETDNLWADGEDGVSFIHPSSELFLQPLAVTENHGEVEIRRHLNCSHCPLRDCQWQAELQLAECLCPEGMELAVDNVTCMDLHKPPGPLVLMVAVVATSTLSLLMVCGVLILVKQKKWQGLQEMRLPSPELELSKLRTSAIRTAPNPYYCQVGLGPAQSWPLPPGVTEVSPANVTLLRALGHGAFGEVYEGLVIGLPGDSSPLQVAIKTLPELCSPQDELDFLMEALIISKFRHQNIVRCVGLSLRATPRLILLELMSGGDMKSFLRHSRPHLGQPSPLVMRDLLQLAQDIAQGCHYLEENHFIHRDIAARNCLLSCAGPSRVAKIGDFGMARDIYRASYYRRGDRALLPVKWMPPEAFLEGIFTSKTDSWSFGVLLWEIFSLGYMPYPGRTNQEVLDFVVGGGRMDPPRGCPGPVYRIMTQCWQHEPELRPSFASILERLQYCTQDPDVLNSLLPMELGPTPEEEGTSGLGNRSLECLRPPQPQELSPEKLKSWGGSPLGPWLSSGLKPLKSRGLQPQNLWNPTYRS
T2 sequence (Q9Y463 whole entry): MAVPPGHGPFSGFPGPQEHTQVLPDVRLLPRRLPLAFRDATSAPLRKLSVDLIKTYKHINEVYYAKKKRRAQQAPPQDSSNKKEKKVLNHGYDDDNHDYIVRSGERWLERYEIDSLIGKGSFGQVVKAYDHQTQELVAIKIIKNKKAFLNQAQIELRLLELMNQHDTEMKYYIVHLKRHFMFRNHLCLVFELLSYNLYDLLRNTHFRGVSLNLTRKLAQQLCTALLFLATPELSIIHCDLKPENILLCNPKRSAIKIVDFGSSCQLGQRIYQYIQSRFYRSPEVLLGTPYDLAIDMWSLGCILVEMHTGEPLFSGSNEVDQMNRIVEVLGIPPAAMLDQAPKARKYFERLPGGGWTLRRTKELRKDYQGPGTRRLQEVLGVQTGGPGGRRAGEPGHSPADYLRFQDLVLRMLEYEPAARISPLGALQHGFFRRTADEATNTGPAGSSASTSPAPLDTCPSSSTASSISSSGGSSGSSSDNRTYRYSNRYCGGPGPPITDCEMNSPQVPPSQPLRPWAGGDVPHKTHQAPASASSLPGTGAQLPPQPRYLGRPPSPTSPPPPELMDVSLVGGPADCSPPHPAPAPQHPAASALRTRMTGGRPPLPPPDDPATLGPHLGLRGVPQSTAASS
Sequence of PFPK5(P. falciparum) (P61075 whole entry): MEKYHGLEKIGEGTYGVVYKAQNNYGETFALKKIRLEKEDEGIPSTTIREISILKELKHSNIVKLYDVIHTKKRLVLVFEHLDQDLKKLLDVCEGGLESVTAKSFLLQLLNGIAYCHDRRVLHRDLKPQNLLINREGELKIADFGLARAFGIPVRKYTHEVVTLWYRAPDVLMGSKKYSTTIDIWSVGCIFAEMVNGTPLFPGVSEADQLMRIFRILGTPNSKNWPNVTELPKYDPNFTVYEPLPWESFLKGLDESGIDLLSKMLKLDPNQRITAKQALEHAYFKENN
Sequence of RSK3(Kin.Dom.2-C-terminal) (Q15349 whole entry): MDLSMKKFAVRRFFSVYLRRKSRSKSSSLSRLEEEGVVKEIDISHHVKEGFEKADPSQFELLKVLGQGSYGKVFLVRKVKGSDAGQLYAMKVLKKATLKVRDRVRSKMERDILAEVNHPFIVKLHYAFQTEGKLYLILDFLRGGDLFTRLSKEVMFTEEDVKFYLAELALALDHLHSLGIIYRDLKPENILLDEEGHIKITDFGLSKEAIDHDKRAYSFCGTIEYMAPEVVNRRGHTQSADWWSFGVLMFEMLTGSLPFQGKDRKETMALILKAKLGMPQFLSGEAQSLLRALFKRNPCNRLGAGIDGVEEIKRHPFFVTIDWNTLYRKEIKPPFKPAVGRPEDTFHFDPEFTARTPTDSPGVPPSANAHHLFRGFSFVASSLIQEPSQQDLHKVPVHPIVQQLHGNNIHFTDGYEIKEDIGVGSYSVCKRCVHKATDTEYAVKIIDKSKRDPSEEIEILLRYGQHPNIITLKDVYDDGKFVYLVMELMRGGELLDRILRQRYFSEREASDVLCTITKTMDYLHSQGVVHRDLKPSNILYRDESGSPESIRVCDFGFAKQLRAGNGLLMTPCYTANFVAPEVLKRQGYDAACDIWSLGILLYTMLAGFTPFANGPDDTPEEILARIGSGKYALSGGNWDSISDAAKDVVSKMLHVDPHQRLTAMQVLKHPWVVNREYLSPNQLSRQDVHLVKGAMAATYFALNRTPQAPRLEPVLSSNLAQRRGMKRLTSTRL
Sequence of RSK4(Kin.Dom.2-C-terminal) (Q9UK32 whole entry): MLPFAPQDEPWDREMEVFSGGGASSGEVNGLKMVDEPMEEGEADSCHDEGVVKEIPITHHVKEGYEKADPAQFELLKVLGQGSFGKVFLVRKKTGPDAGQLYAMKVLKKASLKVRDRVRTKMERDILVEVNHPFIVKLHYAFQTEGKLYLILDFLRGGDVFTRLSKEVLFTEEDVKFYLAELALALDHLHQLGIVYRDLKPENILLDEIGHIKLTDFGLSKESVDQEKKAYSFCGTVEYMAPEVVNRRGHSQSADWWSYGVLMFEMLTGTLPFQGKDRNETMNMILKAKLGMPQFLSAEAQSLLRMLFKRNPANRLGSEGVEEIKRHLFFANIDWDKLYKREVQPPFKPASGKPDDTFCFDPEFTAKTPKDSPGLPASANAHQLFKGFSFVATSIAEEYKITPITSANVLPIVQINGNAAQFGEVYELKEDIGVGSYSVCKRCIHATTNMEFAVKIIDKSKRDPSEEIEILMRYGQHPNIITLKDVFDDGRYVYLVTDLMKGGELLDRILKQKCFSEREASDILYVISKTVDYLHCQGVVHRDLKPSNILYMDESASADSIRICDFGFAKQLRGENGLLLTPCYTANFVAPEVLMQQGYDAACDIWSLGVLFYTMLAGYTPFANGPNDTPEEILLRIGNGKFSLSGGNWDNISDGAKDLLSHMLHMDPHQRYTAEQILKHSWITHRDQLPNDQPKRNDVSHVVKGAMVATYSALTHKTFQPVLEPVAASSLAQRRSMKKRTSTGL
Sequence of RSK4(Kin.Dom.1-N-terminal) (Q9UK32 whole entry): as above
Sequence of JAK2(JH1domain-catalytic) (O60674 whole entry): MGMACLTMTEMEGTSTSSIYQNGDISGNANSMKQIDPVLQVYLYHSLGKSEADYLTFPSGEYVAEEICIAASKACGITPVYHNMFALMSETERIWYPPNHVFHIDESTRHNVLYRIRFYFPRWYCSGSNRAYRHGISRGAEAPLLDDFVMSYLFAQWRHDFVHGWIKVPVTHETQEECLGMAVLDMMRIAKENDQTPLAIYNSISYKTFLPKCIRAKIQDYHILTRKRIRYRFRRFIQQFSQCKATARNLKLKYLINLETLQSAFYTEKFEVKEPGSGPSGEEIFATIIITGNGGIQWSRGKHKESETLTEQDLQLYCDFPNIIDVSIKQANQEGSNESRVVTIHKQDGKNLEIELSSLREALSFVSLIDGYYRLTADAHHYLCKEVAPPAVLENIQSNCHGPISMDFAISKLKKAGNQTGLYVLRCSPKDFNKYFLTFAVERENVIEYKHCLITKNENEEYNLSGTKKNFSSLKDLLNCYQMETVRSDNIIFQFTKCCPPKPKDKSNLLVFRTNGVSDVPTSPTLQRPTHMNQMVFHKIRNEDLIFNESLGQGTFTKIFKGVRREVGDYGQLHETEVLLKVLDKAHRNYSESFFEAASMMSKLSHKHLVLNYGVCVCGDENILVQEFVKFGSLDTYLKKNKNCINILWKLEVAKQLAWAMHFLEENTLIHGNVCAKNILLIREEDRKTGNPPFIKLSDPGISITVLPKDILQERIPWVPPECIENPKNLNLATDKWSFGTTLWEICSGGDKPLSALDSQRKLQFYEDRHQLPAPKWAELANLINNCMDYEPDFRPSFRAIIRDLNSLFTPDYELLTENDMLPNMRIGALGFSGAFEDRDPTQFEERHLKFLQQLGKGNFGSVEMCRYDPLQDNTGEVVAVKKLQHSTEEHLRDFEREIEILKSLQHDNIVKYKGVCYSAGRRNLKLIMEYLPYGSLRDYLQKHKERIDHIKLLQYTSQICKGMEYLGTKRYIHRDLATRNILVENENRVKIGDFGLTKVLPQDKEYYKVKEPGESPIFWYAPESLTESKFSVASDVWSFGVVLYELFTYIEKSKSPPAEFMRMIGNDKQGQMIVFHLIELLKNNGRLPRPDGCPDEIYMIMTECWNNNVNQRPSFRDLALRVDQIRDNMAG

SMILES: CNc1ncc2cc(-c3ccc(-c4cccc(C)n4)cc3Cl)c(=O)n(C[C@H]3OC[C@H](N)CO3)c2n1 [compound 6, G-5555]
- remaining activity at 1 µM [1]: 75%
- remaining activity at 1 µM [2]: 49%
- remaining activity at 1 µM [3]: 4.1%
- Percent Control [4]: 100%
- Percent Control [5]: 99%
- Percent Control [6]: 100%
- Percent Control [7]: 100%
- Percent Control [8]: 100%
- Percent Control [9]: 100%
- Percent Control [10]: 92%
- Percent Control [11]: 100%
- Percent Control [12]: 97%
- Percent Control [13]: 51%
- remaining activity at 0.1 µM [14]: 100%
- remaining activity at 0.1 µM [15]: 61%
- remaining activity at 0.1 µM [16]: 28%
- Percent Control [17]: 100%
- Percent Control [18]: 93%
- Percent Control [19]: 70%
- Percent Control [20]: 100%
- Percent Control [21]: 100%
- Percent Control [22]: 100%
- Percent Control [23]: 71%
- Percent Control [24]: 100%
- Percent Control [25]: 100%
- Percent Control [26]: 86%
- Percent Control [27]: 100%
- Percent Control [28]: 100%
- Percent Control [29]: 0.4%
